PMC3085641 (Bioorganic & medicinal chemistry letters, 2011)

Biological target: dopamine transporter (DAT) (Rattus norvegicus, UniProt P23977)
Test: biochemical

Sequence of dopamine transporter (DAT) (P23977 whole entry): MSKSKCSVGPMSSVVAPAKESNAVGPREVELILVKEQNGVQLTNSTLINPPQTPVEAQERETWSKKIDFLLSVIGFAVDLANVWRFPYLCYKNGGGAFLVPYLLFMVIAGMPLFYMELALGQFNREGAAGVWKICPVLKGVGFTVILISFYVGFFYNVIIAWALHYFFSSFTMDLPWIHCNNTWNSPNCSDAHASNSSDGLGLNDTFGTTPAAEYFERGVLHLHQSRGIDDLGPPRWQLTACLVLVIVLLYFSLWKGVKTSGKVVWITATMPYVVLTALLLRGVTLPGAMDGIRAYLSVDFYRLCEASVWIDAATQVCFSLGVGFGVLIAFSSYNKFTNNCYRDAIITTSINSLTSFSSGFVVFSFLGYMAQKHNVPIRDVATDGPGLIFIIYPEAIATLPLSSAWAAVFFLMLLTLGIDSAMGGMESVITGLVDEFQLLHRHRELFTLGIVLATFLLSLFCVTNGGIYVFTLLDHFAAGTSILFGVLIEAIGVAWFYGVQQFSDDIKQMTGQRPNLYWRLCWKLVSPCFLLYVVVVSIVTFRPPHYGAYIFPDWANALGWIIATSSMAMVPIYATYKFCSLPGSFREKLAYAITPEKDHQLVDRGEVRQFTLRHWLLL

Structure (SMILES): CN1C2CCC1[C@@H](CNc1ccc(Br)nc1)[C@@H](c1ccc(Cl)cc1)C2 (stereo partly shown) [Compound 6b]
- Ki: 0.017 µM
